Measured values from ChEMBL document CHEMBL3745709, “Synthesis of novel ethyl 1-ethyl-6-fluoro-7-(fatty amido)-1,4-dihydro-4-oxoquinoline-3-carboxylate derivatives and their biological evaluation” (Bioorg Med Chem Lett, 2016).
Converted amounts (≈) assume the structure as drawn.

Key:
Escherichia coli [1] = assay: Antibiofilm activity against Escherichia coli MTCC 739 after 24 hrs by crystal violet staining method; type: functional, organism-based; details: MTCC 739, 24 h
Candida parapsilosis [2] = assay: Fungicidal activity against Candida parapsilosis MTCC 1744 assessed as microbial killing after 24 hrs; type: functional; details: Lodderomyces parapsilosis, MTCC 1744, 24 h
Candida albicans [3] = assay: Fungicidal activity against Candida albicans MTCC 3958 assessed as microbial killing after 24 hrs; type: functional; details: MTCC 3958, 24 h
Candida albicans [4] = assay: Fungicidal activity against Candida albicans MTCC 1637 assessed as microbial killing after 24 hrs; type: functional; details: MTCC 1637, 24 h
IMR-90 [5] = assay: Selectivity index, ratio of IC50 for human IMR90 cells to IC50 for human MCF7 cells; type: functional
[6] = Cytotoxicity against human DU145 cells assessed as reduction in cell viability by MTT assay; type: functional, cell-based; details: DU-145
Candida albicans [7] = assay: Antifungal activity against Candida albicans MTCC 7315 assessed as inhibition zone after 24 hrs at 30 degC by well diffusion method; type: functional; details: MTCC 7315, 24 h
Candida albicans [8] = assay: Antifungal activity against Candida albicans MTCC 854 assessed as inhibition zone after 24 hrs at 30 degC by well diffusion method; type: functional; details: MTCC 854, 24 h
Candida albicans [9] = assay: Antifungal activity against Candida albicans MTCC 4748 assessed as inhibition zone after 24 hrs at 30 degC by well diffusion method; type: functional; details: MTCC 4748, 24 h
Staphylococcus aureus [10] = assay: Bactericidal activity against Staphylococcus aureus MLS-16 MTCC 2940 assessed as microbial killing after 24 hrs; type: functional; details: MLS-16 MTCC 2940, 24 h
Raoultella planticola = assay: Antibacterial activity against Klebsiella planticola MTCC 530 assessed as inhibition zone after 24 hrs at 30 degC by well diffusion method; type: functional; details: MTCC 530, 24 h
A549 [11] = assay: Selectivity index, ratio of IC50 for human IMR90 cells to IC50 for human A549 cells; type: functional
Staphylococcus aureus [12] = assay: Antibacterial activity against Staphylococcus aureus MTCC 96 […] after 24 hrs at 30 degC by well diffusion method; type: functional; details: MTCC 96, 24 h
Staphylococcus aureus [13] = assay: Antibiofilm activity against Staphylococcus aureus MLS-16 MTCC 2940 after 24 hrs by crystal violet staining method; type: functional, organism-based; details: MLS-16 MTCC 2940, 24 h
Bacillus subtilis [14] = assay: Bactericidal activity against Bacillus subtilis MTCC 121 assessed as microbial killing after 24 hrs; type: functional; details: MTCC 121, 24 h
SK-OV-3 = assay: Selectivity index, ratio of IC50 for human IMR90 cells to IC50 for human SKOV3 cells; type: functional
Nakaseomyces glabratus [15] = assay: Fungicidal activity against Candida glabrata MTCC 3019 assessed as microbial killing after 24 hrs; type: functional; details: MTCC 3019, 24 h
Staphylococcus aureus [16] = assay: Bactericidal activity against Staphylococcus aureus MTCC 96 assessed as microbial killing after 24 hrs; type: functional; details: MTCC 96, 24 h
Candida albicans [17] = assay: Antifungal activity against Candida albicans MTCC 183 assessed as inhibition zone after 24 hrs at 30 degC by well diffusion method; type: functional; details: MTCC 183, 24 h
Micrococcus luteus = assay: Antibacterial activity against Micrococcus luteus MTCC 2470 assessed as inhibition zone after 24 hrs at 30 degC by well diffusion method; type: functional; details: MTCC 2470, 24 h
Staphylococcus aureus [18] = assay: Antibiofilm activity against Staphylococcus aureus MTCC 96 after 24 hrs by crystal violet staining method; type: functional, organism-based; details: MTCC 96, 24 h
Nakaseomyces glabratus [19] = assay: Antifungal activity against Candida glabrata MTCC 3019 assessed as inhibition zone after 24 hrs at 30 degC by well diffusion method; type: functional; details: MTCC 3019, 24 h
[Candida] aaseri [20] = Antifungal activity against Candida aaseri MTCC 1962 assessed as inhibition zone after 24 hrs at 30 degC by well diffusion method; type: functional; details: Yamadazyma aaseri, MTCC 1962, 24 h
Candida albicans [21] = assay: Antifungal activity against Candida albicans MTCC 3018 assessed as inhibition zone after 24 hrs at 30 degC by well diffusion method; type: functional; details: MTCC 3018, 24 h
Candida albicans [22] = assay: Antifungal activity against Candida albicans MTCC 1637 assessed as inhibition zone after 24 hrs at 30 degC by well diffusion method; type: functional; details: MTCC 1637, 24 h
Pichia kudriavzevii [23] = assay: Antifungal activity against Candida krusei MTCC 3020 assessed as inhibition zone after 24 hrs at 30 degC by well diffusion method; type: functional; details: MTCC 3020, 24 h
Pichia kudriavzevii [24] = assay: Fungicidal activity against Candida krusei MTCC 3020 assessed as microbial killing after 24 hrs; type: functional; details: MTCC 3020, 24 h
Escherichia coli [25] = assay: Bactericidal activity against Escherichia coli MTCC 739 assessed as microbial killing after 24 hrs; type: functional; details: MTCC 739, 24 h
Candida albicans [26] = assay: Antifungal activity against Candida albicans MTCC 3017 […] after 24 hrs at 30 degC by well diffusion method; type: functional; details: MTCC 3017, 24 h
Candida parapsilosis [27] = assay: Antifungal activity against Candida parapsilosis MTCC 1744 assessed as inhibition zone after 24 hrs at 30 degC by well diffusion method; type: functional; details: Lodderomyces parapsilosis, MTCC 1744, 24 h
A549 [28] = assay: Cytotoxicity against human A549 cells assessed as reduction in cell viability by MTT assay; type: functional, cell-based
Candida albicans [29] = assay: Antifungal activity against Candida albicans MTCC 227 assessed as inhibition zone after 24 hrs at 30 degC by well diffusion method; type: functional; details: MTCC 227, 24 h
Candida albicans [30] = assay: Fungicidal activity against Candida albicans MTCC 4748 assessed as microbial killing after 24 hrs; type: functional; details: MTCC 4748, 24 h
Candida albicans [31] = assay: Fungicidal activity against Candida albicans MTCC 854 assessed as microbial killing after 24 hrs; type: functional; details: MTCC 854, 24 h
Candida albicans [32] = assay: Fungicidal activity against Candida albicans MTCC 183 assessed as microbial killing after 24 hrs; type: functional; details: MTCC 183, 24 h
Pichia sporocuriosa [33] = assay: Fungicidal activity against Issatchenkia hanoiensis MTCC 4755 assessed as microbial killing after 24 hrs; type: functional; details: MTCC 4755, 24 h
Pichia sporocuriosa [34] = assay: Antifungal activity against Issatchenkia hanoiensis MTCC 4755 assessed as inhibition zone after 24 hrs at 30 degC by well diffusion method; type: functional; details: MTCC 4755, 24 h
Escherichia coli [35] = assay: Antibacterial activity against Escherichia coli MTCC 739 assessed as inhibition zone after 24 hrs at 30 degC by well diffusion method; type: functional; details: MTCC 739, 24 h
Candida albicans [36] = assay: Fungicidal activity against Candida albicans MTCC 7315 assessed as microbial killing after 24 hrs; type: functional; details: MTCC 7315, 24 h
Candida albicans [37] = assay: Fungicidal activity against Candida albicans MTCC 3017 assessed as microbial killing after 24 hrs; type: functional; details: MTCC 3017, 24 h
Candida albicans [38] = assay: Fungicidal activity against Candida albicans MTCC 227 assessed as microbial killing after 24 hrs; type: functional; details: MTCC 227, 24 h
IMR-90 [39] = assay: Selectivity index, ratio of IC50 for human IMR90 cells to IC50 for human DU145 cells; type: functional
Bacillus subtilis [40] = assay: Antibiofilm activity against Bacillus subtilis MTCC 121 after 24 hrs by crystal violet staining method; type: functional, organism-based; details: MTCC 121, 24 h
[41] = Antioxidant activity assessed as DPPH free radical scavenging activity; type: physicochemical
Bacillus subtilis [42] = assay: Antibacterial activity against Bacillus subtilis MTCC 121 assessed as inhibition zone after 24 hrs at 30 degC by well diffusion method; type: functional; details: MTCC 121, 24 h
MCF7 = assay: Cytotoxicity against human MCF7 cells assessed as reduction in cell viability by MTT assay; type: functional, cell-based
Candida albicans [43] = assay: Antifungal activity against Candida albicans MTCC 3958 assessed as inhibition zone after 24 hrs at 30 degC by well diffusion method; type: functional; details: MTCC 3958, 24 h
[44] = Cytotoxicity against human SKOV3 cells assessed as reduction in cell viability by MTT assay; type: functional, cell-based; details: SK-OV-3
[45] = Cytotoxicity against human IMR90 cells assessed as reduction in cell viability by MTT assay; type: cell-based; details: IMR-90
Staphylococcus aureus [46] = assay: Antibacterial activity against Staphylococcus aureus MLS-16 MTCC 2940 assessed as inhibition zone after 24 hrs at 30 degC by well diffusion method; type: functional; details: MLS-16 MTCC 2940, 24 h
Pseudomonas aeruginosa = assay: Antibacterial activity against Pseudomonas aeruginosa MTCC 2453 assessed as inhibition zone after 24 hrs at 30 degC by well diffusion method; type: functional; details: MTCC 2453, 24 h
Candida albicans [47] = assay: Fungicidal activity against Candida albicans MTCC 3018 assessed as microbial killing after 24 hrs; type: functional; details: MTCC 3018, 24 h
[Candida] aaseri [48] = Fungicidal activity against Candida aaseri MTCC 1962 assessed as microbial killing after 24 hrs; type: functional; details: Yamadazyma aaseri, MTCC 1962, 24 h

IC50 (Escherichia coli [1]): 8.7 µg/mL (≈ 23.1 µM)
MIC (Candida albicans [7]): 31.2 µg/mL (≈ 82.9 µM)
MIC (Candida albicans [8]): 31.2 µg/mL (≈ 82.9 µM)
MIC (Candida albicans [9]): 31.2 µg/mL (≈ 82.9 µM)
MIC (Staphylococcus aureus [12]): 3.9 µg/mL (≈ 10.4 µM)
IC50 (Staphylococcus aureus [13]): 9.8 µg/mL (≈ 26 µM)
MIC (Candida albicans [17]): 15.6 µg/mL (≈ 41.4 µM)
MIC (Micrococcus luteus): > 125 µg/mL
IC50 (Staphylococcus aureus [18]): 2.1 µg/mL (≈ 5.58 µM)
MIC (Nakaseomyces glabratus [19]): 31.2 µg/mL (≈ 82.9 µM)
MIC ([Candida] aaseri [20]): 31.2 µg/mL (≈ 82.9 µM)
MIC (Candida albicans [21]): 62.5 µg/mL (≈ 166 µM)
MIC (Candida albicans [22]): 31.2 µg/mL (≈ 82.9 µM)
MIC (Pichia kudriavzevii [23]): 62.5 µg/mL (≈ 166 µM)
MIC (Candida albicans [26]): 31.2 µg/mL (≈ 82.9 µM)
MIC (Candida parapsilosis [27]): 31.2 µg/mL (≈ 82.9 µM)
MIC (Candida albicans [29]): 62.5 µg/mL (≈ 166 µM)
MIC (Pichia sporocuriosa [34]): 31.2 µg/mL (≈ 82.9 µM)
MIC (Escherichia coli [35]): 15.6 µg/mL (≈ 41.4 µM)
IC50 (Bacillus subtilis [40]): 4.6 µg/mL (≈ 12.2 µM)
EC50 [41]: 33.8 µg/mL (≈ 89.8 µM)
MIC (Bacillus subtilis [42]): 7.8 µg/mL (≈ 20.7 µM)
MIC (Candida albicans [43]): 31.2 µg/mL (≈ 82.9 µM)
MIC (Staphylococcus aureus [46]): 15.6 µg/mL (≈ 41.4 µM)
MIC (Pseudomonas aeruginosa): > 125 µg/mL
Structure (SMILES): CCCCCC(=O)Nc1cc2c(cc1F)c(=O)c(C(=O)OCC)cn2CC
MFC (Candida parapsilosis [2]): 62.5 µg/mL (≈ 166 µM)
MFC (Candida albicans [3]): 62.5 µg/mL (≈ 166 µM)
MFC (Candida albicans [4]): 62.5 µg/mL (≈ 166 µM)
Ratio IC50 (IMR-90 [5]): 9
IC50 [6]: 9.8 µM
MBC (Staphylococcus aureus [10]): 31.2 µg/mL (≈ 82.9 µM)
MIC (Raoultella planticola): > 125 µg/mL
Ratio IC50 (A549 [11]): 9.9
MBC (Bacillus subtilis [14]): 7.8 µg/mL (≈ 20.7 µM)
Ratio IC50 (SK-OV-3): 10.2
MFC (Nakaseomyces glabratus [15]): 31.2 µg/mL (≈ 82.9 µM)
MBC (Staphylococcus aureus [16]): 7.8 µg/mL (≈ 20.7 µM)
MFC (Pichia kudriavzevii [24]): 62.5 µg/mL (≈ 166 µM)
MBC (Escherichia coli [25]): 31.2 µg/mL (≈ 82.9 µM)
IC50 (A549 [28]): 8.9 µM
MFC (Candida albicans [30]): 62.6 µg/mL (≈ 166 µM)
MFC (Candida albicans [31]): 62.5 µg/mL (≈ 166 µM)
MFC (Candida albicans [32]): 31.2 µg/mL (≈ 82.9 µM)
MFC (Pichia sporocuriosa [33]): 62.5 µg/mL (≈ 166 µM)
MFC (Candida albicans [36]): 31.2 µg/mL (≈ 82.9 µM)
MFC (Candida albicans [37]): 62.5 µg/mL (≈ 166 µM)
MFC (Candida albicans [38]): 125 µg/mL (≈ 332 µM)
Ratio IC50 (IMR-90 [39]): 9
IC50 (MCF7): 9.8 µM
IC50 [44]: 8.6 µM
IC50 [45]: 88.2 µM
MFC (Candida albicans [47]): 62.5 µg/mL (≈ 166 µM)
MFC ([Candida] aaseri [48]): 62.5 µg/mL (≈ 166 µM)
